Results taken from patent US6803372B2, “Spiro compounds” (Banyu Pharmaceutical Co., Ltd., priority 1999, dated 2004).
pIC50: −log10 of the molar value.

Key:
human NPY Y5 receptor = target: T1, human NPY Y5 receptor (Homo sapiens, UniProt Q15761); test: NPY binding inhibition test (Pharmacological Test 1); conditions: [125I]peptideYY, membrane sample from cells expressing NPY Y5 receptor, 25° C., 2 hours; read-out: IC50 of the test compound against specific peptideYY binding
T1 construct: expressed in transfected cells; host or cells: COS-7, CHO and LM(tk-)
T1 sequence (Q15761 1-445): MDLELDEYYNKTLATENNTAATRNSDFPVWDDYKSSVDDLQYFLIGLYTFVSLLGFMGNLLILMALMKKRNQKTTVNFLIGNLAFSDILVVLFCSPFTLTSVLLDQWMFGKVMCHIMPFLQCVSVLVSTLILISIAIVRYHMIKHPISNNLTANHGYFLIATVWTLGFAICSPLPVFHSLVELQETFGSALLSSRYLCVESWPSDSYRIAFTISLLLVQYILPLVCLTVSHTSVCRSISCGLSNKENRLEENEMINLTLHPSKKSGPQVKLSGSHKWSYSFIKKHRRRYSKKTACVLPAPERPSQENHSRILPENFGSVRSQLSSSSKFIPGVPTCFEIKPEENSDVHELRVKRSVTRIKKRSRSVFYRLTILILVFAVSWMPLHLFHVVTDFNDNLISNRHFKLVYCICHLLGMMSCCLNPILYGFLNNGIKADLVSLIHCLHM
Text: Pharmacological Test 1 (NPY Binding Inhibition Test)
cDNA sequence encoding human NPY Y5 receptor [International patent publication number WO96/16542] was cloned into expression vectors pcDNA3, pRc/RSV (made by Invitrogen Inc.) and pCI-neo (made by Promega Inc.). This obtained expression vectors were transfected to host cells COS-7, CHO and LM(tk-) (American Type Culture Collection) by cationic lipid method [Proceedings of the National Academy of Sciences of the United States of America, 84: 7413(1987)] to give NPY Y5 receptor expression cells.
A membrane sample prepared from the cells which expressed NPY Y5 receptor was incubated together with a test compound and [^125I]peptideYY (NEN) (20,000 cpm) in an assay buffer (25 mM Tris buffer, pH7.4, containing 10 mM magnesium chloride, 1 mM phenylmethylsulfonyl fluoride, 0.1% bacitracin and 0.5% bovine serum albumin) at 25° C. for 2 hours, then filtered through a glass filter GF/C and washed with 5 mM Tris buffer (pH7.4) containing 0.3% BSA. The radioactivity of the cake on the glass filter was measured. Nonspecific binding was measured in the presence of 1 μM peptideYY and a 50% Inhibitory Concentration (IC50) of the test compound against specific peptideYY binding was determined [Endocrinology, 131: 2090(1992)].

[1] = Isolation of metabolites of compound of example 101; conditions: parent: compound of example 101

Compound | pIC50 (human NPY Y5 receptor) | melting point | isolated as metabolite [1]
O=C1OC2(CCC(C(=O)Nc3ncc(-c4ccccc4)cn3)CC2)c2ccccc21 (stereo not drawn) [Example 50, Trans-3′-oxo-N-(5-phenyl-2-pyrimidinyl)spiro[cyclohexane-1,1′(3′H)-isobenzofuran]-4-carboxamide] | 9.32 | – | –
O=C1OC2(CCC(C(=O)Nc3cn(-c4cnc5ccccc5c4)cn3)CC2)c2ccccc21 (stereo not drawn) [Example 55, Trans-3′-oxo-N-[1-(3-quinolyl)-4-imidazolyl]spiro[cyclohexane-1,1′(3′H)-isobenzofuran]-4-carboxamide] | 9.23 | > 300 °C | –
O=C1OC2(CCC(C(=O)Nc3ccn(-c4ccccc4F)n3)CC2)c2c[n+]([O-])ccc21 (stereo not drawn) [Example 107, trans-N-[1-(2-fluorophenyl)-3-pyrazolyl]-3-oxospiro[6-azaisobenzofuran-1(3H),1′-cyclohexane]-4′-carboxamide 6-oxide] | 8.34 | – | isolated as metabolites of compound of example 101
O=C1OC2(CCC(C(=O)Nc3ccn(-c4ccc(O)cc4F)n3)CC2)c2cnccc21 (stereo not drawn) [Example 108, trans-N-[1-(2-fluoro-4-hydroxyphenyl)-3-pyrazolyl]-3-oxospiro[6-azaisobenzofuran-1(3H),1′-cyclohexane]-4′-carboxamide] | 8.52 | – | isolated as metabolites of compound of example 101
O=C1OC2(CCC(O)(C(=O)Nc3ccn(-c4ccccc4F)n3)CC2)c2cnccc21 (stereo not drawn) [Example 109, cis-N-[1-(2-fluorophenyl)-3-pyrazolyl]-4′-hydroxy-3-oxospiro[6-azaisobenzofuran-1(3H),1′-cyclohexane]-4′-carboxamide] | – | – | isolated as metabolites of compound of example 101

Second part, led by results:

pIC50 (human NPY Y5 receptor) | melting point | Compound | isolated as metabolite [1]
8.92 | – | O=C(c1ccccc1)c1ccc(NC(=O)N2CCC3(CC2)NC(=O)c2ccccc23)cc1 [Example 1, N-(4-benzoylphenyl)-3-oxospiro[isoindoline-1,4′-piperidine]-1′-carboxamide] | –
9.14 | 264 to 266 °C | O=C1Cc2ccccc2C2(CCN(C(=O)Nc3cn(-c4ccc5ccccc5n4)cn3)CC2)N1 [Example 9, 3,4-Dihydro-3-oxo-N-[1-(2-quinolyl)-4-imidazolyl]spiro[isoquinoline-1(2H),4′-piperidine]-1′-carboxamide] | –
8.60 | 246 to 248 °C | O=C1OC2(CCN(C(=O)Nc3ccc4ncc(C(F)(F)F)cc4n3)CC2)c2ccccc21 [Example 26, 3-Oxo-N-(7-trifluoromethylpyrido[3,2-b]pyridin-2-yl)-spiro[isobenzofuran-1(3H),4′-piperidine]-1′-carboxamide] | –
8.82 | – | O=C1Cc2ccccc2C2(CCN(C(=O)Nc3ccc(C(=O)c4ccccc4)cc3)CC2)O1 [Example 44, N-(4-benzoylphenyl)-3,4-dihydro-3-oxospiro[1H-2-benzopyran-1,4′-piperidine]-1′-carboxamide] | –
– | 128 to 131 °C | O=C1Cc2ccccc2C2(CCN(C(=O)Nc3cnc(C(=O)c4ccccc4)cn3)CC2)O1 [Example 46, N-(5-benzoyl-2-pyrazinyl)-3,4-dihydro-3-oxospiro[1H-2-benzopyran-1,4′-piperidine]-1′-carboxamide] | –
